Test results published in PubChem BioAssay AID504381 (The Scripps Research Institute Molecular Screening Center, 2011).
Calls of active or inactive are those of the source. The rule behind the calls is not given here.

What was measured:
Assay in all cases: radioligand displacement at receptors and transporters – biochemical, PDSP panel, Set 2, late-stage follow-up (AID 504381)
[1] = target: Muscarinic acetylcholine receptor M1 (Homo sapiens) (UniProt P11229); conditions: PDSP radioligand binding panel, at 10 µM, stronger effect = higher value
Chain of Muscarinic acetylcholine receptor M1 (Homo sapiens) (P11229 whole entry, looked up): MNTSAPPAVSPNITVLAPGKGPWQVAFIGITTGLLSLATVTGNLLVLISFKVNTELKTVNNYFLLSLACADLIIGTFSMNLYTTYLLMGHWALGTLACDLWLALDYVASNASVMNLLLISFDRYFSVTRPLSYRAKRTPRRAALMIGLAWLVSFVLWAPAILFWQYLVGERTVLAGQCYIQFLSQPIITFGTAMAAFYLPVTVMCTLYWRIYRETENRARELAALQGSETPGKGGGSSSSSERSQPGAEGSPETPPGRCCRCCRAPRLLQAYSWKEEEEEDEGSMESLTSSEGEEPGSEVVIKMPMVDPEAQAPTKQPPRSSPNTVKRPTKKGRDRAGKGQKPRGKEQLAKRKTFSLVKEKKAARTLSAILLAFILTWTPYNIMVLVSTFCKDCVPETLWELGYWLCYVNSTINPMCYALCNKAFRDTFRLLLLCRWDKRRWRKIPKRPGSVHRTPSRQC

[2] = tested on: Biogenic amine transporter DAT; conditions: PDSP radioligand binding panel, at 10 µM, stronger effect = higher value
[3] = tested on: Serotonin receptor 5ht1d; conditions: PDSP radioligand binding panel, at 10 µM, stronger effect = higher value
[4] = tested on: Serotonin receptor 5ht2a; conditions: PDSP radioligand binding panel, at 10 µM, stronger effect = higher value
[5] = target: 5-hydroxytryptamine receptor 2B (Homo sapiens) (UniProt P41595); conditions: PDSP radioligand binding panel, Serotonin receptor 5ht2b, at 10 µM, stronger effect = higher value
Chain of 5-hydroxytryptamine receptor 2B (Homo sapiens) (P41595 whole entry, looked up): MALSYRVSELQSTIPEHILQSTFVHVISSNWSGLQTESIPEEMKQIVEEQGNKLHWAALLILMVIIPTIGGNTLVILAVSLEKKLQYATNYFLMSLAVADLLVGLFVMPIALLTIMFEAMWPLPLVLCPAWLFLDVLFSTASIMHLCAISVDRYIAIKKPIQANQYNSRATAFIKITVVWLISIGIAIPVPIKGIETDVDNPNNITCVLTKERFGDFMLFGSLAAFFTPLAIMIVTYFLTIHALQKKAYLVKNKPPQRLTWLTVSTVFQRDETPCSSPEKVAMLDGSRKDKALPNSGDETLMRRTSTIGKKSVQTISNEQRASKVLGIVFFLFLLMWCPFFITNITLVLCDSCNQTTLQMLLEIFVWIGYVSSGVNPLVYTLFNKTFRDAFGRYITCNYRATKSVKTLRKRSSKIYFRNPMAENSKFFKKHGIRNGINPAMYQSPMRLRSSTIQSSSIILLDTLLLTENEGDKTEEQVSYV

[6] = target: Beta-2 adrenergic receptor (Homo sapiens) (UniProt P07550); conditions: PDSP radioligand binding panel, Adrenergic receptor Beta2, at 10 µM, stronger effect = higher value
Chain of Beta-2 adrenergic receptor (Homo sapiens) (P07550 whole entry, looked up): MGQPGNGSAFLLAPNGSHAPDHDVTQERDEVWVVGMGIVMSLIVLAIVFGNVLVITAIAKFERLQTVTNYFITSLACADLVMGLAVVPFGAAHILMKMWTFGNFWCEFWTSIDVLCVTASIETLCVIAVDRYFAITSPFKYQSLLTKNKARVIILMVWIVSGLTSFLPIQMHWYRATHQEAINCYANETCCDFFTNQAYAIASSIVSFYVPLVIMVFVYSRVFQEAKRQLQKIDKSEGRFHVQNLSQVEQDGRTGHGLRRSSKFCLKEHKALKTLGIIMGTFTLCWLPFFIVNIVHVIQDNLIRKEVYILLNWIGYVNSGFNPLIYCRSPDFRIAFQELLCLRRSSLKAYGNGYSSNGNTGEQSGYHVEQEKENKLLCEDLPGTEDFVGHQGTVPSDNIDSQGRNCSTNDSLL

[7] = tested on: Adrenergic receptor Alpha1A; conditions: PDSP radioligand binding panel, at 10 µM, stronger effect = higher value
[8] = tested on: Adrenergic receptor Alpha1D; conditions: PDSP radioligand binding panel, at 10 µM, stronger effect = higher value
[9] = tested on: Serotonin receptor 5ht3; conditions: PDSP radioligand binding panel, at 10 µM, stronger effect = higher value
[10] = target: Delta-type opioid receptor (Homo sapiens) (UniProt P41143); conditions: PDSP radioligand binding panel, Opioid receptor DOR, at 10 µM, stronger effect = higher value
Chain of Delta-type opioid receptor (Homo sapiens) (P41143 whole entry, looked up): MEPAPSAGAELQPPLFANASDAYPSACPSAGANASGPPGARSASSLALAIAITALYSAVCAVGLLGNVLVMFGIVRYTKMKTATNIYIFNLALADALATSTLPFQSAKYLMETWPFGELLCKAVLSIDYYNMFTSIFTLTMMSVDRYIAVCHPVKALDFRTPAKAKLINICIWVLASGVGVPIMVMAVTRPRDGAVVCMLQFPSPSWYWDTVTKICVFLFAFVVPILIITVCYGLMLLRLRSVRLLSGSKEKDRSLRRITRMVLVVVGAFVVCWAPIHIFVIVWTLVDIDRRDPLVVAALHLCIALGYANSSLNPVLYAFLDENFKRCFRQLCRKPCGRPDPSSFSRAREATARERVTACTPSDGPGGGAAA

[11] = target: Muscarinic acetylcholine receptor M2 (Homo sapiens) (UniProt P08172); conditions: PDSP radioligand binding panel, at 10 µM, stronger effect = higher value
Chain of Muscarinic acetylcholine receptor M2 (Homo sapiens) (P08172 whole entry, looked up): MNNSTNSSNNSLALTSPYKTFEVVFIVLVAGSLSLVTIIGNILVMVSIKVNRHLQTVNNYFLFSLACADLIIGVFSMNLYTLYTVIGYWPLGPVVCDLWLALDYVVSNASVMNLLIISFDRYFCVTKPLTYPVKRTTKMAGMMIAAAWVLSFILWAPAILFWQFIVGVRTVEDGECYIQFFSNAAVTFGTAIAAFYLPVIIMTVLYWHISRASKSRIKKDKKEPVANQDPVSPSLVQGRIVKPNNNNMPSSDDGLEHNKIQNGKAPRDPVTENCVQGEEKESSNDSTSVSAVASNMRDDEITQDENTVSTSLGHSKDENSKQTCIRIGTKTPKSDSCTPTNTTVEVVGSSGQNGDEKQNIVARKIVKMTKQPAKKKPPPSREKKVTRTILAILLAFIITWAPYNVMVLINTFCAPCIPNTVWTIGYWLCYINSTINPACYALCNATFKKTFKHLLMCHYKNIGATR

[12] = tested on: Muscarinic receptor M4; conditions: PDSP radioligand binding panel, at 10 µM, stronger effect = higher value
[13] = tested on: Histamine receptor H3; conditions: PDSP radioligand binding panel, at 10 µM, stronger effect = higher value
[14] = target: D(1A) dopamine receptor (Homo sapiens) (UniProt P21728); conditions: PDSP radioligand binding panel, Dopamine receptor D1, at 10 µM, stronger effect = higher value
Chain of D(1A) dopamine receptor (Homo sapiens) (P21728 whole entry, looked up): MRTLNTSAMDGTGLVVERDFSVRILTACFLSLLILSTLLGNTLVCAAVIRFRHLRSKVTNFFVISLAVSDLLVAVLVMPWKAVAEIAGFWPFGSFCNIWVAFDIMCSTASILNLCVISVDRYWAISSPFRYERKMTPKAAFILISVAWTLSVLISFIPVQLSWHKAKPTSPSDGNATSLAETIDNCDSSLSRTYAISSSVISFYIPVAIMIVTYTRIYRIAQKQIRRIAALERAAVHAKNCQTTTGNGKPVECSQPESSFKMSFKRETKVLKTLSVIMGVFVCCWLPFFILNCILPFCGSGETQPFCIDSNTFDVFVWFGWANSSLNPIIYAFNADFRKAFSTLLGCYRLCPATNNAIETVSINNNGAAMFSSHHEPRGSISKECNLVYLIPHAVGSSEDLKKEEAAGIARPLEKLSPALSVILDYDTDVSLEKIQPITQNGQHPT

[15] = tested on: Serotonin receptor 5ht1e; conditions: PDSP radioligand binding panel, at 10 µM, stronger effect = higher value
[16] = tested on: Dopamine receptor D4; conditions: PDSP radioligand binding panel, at 10 µM, stronger effect = higher value
[17] = tested on: Histamine receptor H2; conditions: PDSP radioligand binding panel, at 10 µM, stronger effect = higher value
[18] = tested on: Adrenergic receptor Alpha1B; conditions: PDSP radioligand binding panel, at 10 µM, stronger effect = higher value
[19] = tested on: GABA receptor GABAa; conditions: PDSP radioligand binding panel, at 10 µM, stronger effect = higher value
[20] = tested on: Muscarinic receptor M5; conditions: PDSP radioligand binding panel, at 10 µM, stronger effect = higher value
[21] = target: D(1B) dopamine receptor (Homo sapiens) (UniProt P21918); conditions: PDSP radioligand binding panel, Dopamine receptor D5, at 10 µM, stronger effect = higher value
Chain of D(1B) dopamine receptor (Homo sapiens) (P21918 whole entry, looked up): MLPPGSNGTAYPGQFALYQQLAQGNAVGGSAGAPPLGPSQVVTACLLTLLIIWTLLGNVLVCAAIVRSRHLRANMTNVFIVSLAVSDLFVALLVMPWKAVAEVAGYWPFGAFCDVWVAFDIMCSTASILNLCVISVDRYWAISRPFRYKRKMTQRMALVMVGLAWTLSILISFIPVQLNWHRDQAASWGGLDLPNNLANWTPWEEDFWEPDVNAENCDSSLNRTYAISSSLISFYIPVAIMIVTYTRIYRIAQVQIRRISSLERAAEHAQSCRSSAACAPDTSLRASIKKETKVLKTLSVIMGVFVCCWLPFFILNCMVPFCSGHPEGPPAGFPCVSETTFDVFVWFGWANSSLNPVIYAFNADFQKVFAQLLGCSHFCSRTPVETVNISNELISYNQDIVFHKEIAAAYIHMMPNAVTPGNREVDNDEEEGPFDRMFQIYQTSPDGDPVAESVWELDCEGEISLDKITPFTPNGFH

[22] = tested on: Serotonin receptor 5ht2c; conditions: PDSP radioligand binding panel, at 10 µM, stronger effect = higher value
[23] = tested on: Histamine receptor H1; conditions: PDSP radioligand binding panel, at 10 µM, stronger effect = higher value
[24] = tested on: Serotonin receptor 5ht1a; conditions: PDSP radioligand binding panel, at 10 µM, stronger effect = higher value
[25] = tested on: Histamine receptor H4; conditions: PDSP radioligand binding panel, at 10 µM, stronger effect = higher value
[26] = tested on: Adrenergic receptor Beta3; conditions: PDSP radioligand binding panel, at 10 µM, stronger effect = higher value
[27] = target: Kappa-type opioid receptor (Homo sapiens) (UniProt P41145); conditions: PDSP radioligand binding panel, Opioid receptor KOR, at 10 µM, stronger effect = higher value
Chain of Kappa-type opioid receptor (Homo sapiens) (P41145 whole entry, looked up): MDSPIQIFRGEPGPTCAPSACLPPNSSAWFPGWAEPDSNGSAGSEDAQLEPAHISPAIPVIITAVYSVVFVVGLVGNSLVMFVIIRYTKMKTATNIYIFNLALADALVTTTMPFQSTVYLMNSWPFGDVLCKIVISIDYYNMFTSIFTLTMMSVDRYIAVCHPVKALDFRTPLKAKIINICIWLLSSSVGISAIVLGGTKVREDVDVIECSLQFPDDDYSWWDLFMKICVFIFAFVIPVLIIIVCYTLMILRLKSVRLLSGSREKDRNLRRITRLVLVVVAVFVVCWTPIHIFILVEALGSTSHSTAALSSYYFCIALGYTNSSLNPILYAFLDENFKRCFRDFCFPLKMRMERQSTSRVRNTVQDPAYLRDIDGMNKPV

[28] = tested on: Serotonin receptor 5ht5a; conditions: PDSP radioligand binding panel, at 10 µM, stronger effect = higher value
[29] = tested on: Biogenic amine transporter NET; conditions: PDSP radioligand binding panel, at 10 µM, stronger effect = higher value
[30] = tested on: Opioid receptor MOR; conditions: PDSP radioligand binding panel, at 10 µM, stronger effect = higher value
[31] = target: Muscarinic acetylcholine receptor M3 (Homo sapiens) (UniProt P20309); conditions: PDSP radioligand binding panel, at 10 µM, stronger effect = higher value
Chain of Muscarinic acetylcholine receptor M3 (Homo sapiens) (P20309 whole entry, looked up): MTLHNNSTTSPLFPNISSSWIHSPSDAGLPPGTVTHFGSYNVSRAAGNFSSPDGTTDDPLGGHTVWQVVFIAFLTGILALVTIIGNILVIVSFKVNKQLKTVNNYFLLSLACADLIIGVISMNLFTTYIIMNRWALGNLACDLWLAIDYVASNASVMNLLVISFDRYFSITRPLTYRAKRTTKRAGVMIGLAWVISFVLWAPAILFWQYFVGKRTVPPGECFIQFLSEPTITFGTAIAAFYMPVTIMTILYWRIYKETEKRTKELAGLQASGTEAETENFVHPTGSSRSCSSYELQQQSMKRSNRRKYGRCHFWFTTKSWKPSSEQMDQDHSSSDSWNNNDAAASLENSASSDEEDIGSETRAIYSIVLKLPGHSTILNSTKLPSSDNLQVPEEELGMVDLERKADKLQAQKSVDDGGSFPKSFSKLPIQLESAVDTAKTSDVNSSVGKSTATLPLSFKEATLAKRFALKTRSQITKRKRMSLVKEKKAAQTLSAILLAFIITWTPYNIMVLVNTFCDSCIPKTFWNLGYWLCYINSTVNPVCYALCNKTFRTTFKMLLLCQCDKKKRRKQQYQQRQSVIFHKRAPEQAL

[32] = tested on: Serotonin receptor 5ht7; conditions: PDSP radioligand binding panel, at 10 µM, stronger effect = higher value
[33] = tested on: Adrenergic receptor Beta1; conditions: PDSP radioligand binding panel, at 10 µM, stronger effect = higher value
[34] = tested on: Biogenic amine transporter SERT; conditions: PDSP radioligand binding panel, at 10 µM, stronger effect = higher value
[35] = tested on: Serotonin receptor 5ht6; conditions: PDSP radioligand binding panel, at 10 µM, stronger effect = higher value
[36] = target: D(3) dopamine receptor (Homo sapiens) (UniProt P35462); conditions: PDSP radioligand binding panel, Dopamine receptor D3, at 10 µM, stronger effect = higher value
Chain of D(3) dopamine receptor (Homo sapiens) (P35462 whole entry, looked up): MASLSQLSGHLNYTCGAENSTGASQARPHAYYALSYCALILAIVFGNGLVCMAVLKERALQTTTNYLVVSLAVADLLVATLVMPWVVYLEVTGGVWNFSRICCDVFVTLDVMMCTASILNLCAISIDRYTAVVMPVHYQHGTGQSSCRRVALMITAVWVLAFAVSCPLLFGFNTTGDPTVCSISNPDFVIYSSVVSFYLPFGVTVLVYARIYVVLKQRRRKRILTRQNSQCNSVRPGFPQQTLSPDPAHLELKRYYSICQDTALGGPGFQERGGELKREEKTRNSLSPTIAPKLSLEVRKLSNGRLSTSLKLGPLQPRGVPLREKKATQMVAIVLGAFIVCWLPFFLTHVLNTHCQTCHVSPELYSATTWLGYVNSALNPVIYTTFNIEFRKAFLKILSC

[37] = tested on: Serotonin receptor 5ht1b; conditions: PDSP radioligand binding panel, at 10 µM, stronger effect = higher value
[38] = tested on: Sigma receptor 1; conditions: PDSP radioligand binding panel, at 10 µM, stronger effect = higher value
[39] = tested on: Dopamine receptor D2; conditions: PDSP radioligand binding panel, at 10 µM, stronger effect = higher value

Q: What does the source list for `CC(=O)c1ccc2c(c1)Nc1ccccc1S2`?
A: inhibition [1]: -14.2% (inactive); inhibition [2]: 29.1% (inactive); inhibition [3]: 15.3% (inactive); inhibition [4]: 0.5% (inactive); inhibition [5]: 78.9%; inhibition [6]: 11.4% (inactive); inhibition [7]: -2.9% (inactive); inhibition [8]: 17.9% (inactive); inhibition [9]: 7.8% (inactive); inhibition [10]: 0.8% (inactive); inhibition [11]: -6.7% (inactive); inhibition [12]: -9.4% (inactive); inhibition [13]: 4% (inactive); inhibition [14]: 13.9% (inactive); inhibition [15]: -36.5% (inactive); inhibition [16]: 0.9% (inactive); inhibition [17]: 9.9% (inactive); inhibition [18]: 9% (inactive); inhibition [19]: 28.7% (inactive); inhibition [20]: 10.5% (inactive); inhibition [21]: 38.7% (inactive); inhibition [22]: 31.5% (inactive); inhibition [23]: 35.7% (inactive); inhibition [24]: 21.4% (inactive); inhibition [25]: -16% (inactive); inhibition [26]: -13.9% (inactive); inhibition [27]: 102%; inhibition [28]: -7.7% (inactive); inhibition [29]: 74.1% (inactive); inhibition [30]: 16.6% (inactive); inhibition [31]: -0.4% (inactive); inhibition [32]: -19% (inactive); inhibition [33]: 2.6% (inactive); inhibition [34]: 8.8% (inactive); inhibition [35]: 3.5% (inactive); inhibition [36]: 97.3%; inhibition [37]: 5.8% (inactive); inhibition [38]: 6.3% (inactive); inhibition [39]: -1.5% (inactive)
